In patent publication US20250345328A1, “METHODS OF TREATING A RAS RELATED DISEASE OR DISORDER” (Revolution Medicines, Inc., priority 2023, published 2025):

System: human KRAS^G12C NSCLC NCI-H2122 xenograft tumors
Assay: NCI-H2122 xenograft, Compound A plus RMC-6291 combination
Assay type: in vivo
Details: immune-deficient mice; repeated daily oral administration
Description: The antitumor activity of Compound A in combination with RMC-6291 was evaluated using immune-deficient mice bearing human KRAS^G12C NSCLC NCI-H2122 xenograft tumors.

Compound: CCn1c(-c2cccnc2[C@H](C)OC)c2c3cc(ccc31)N1CCO[C@@H](C[C@H](NC(=O)[C@H](C(C)C)N(C)C(=O)C3(F)CCN(C(=O)C#CC(C)(C)N(C)C)CC3)C(=O)N3CCC[C@H](N3)C(=O)OCC(C)(C)C2)C1 [RMC-6291]
- Mean tumor regression: mean tumor regressions were not achieved
